This is an account of results in patent publication US5883084A, “Treatment of respiratory diseases utilizing α-tocopheryl-phosphocholine” (Clarion Pharmaceuticals Inc., priority 1998, dated 1999).

For experiment [1], the system named is Mouse Tracheal Mucus. Nature of the experiment: Mucolytic activity in mouse tracheal mucus (phenol red secretion, aerosol). It counts as in vivo. The conditions noted are these: mice, 25 mg/mL in saline, approximately 100 mg/kg, 5 mice, saline control zero percent. From the text:
The invention provides a method of alleviating respiratory distress due to tenacious pulmonary mucous secretions in a patient suffering from such distress. In the preferred embodiment, the method is accomplished by the intermittent inhalation of an aerosol or dry powder formulation of α-tocopheryl-phosphocholine to deliver an effective mucolytic amount of α-tocopheryl-phosphocholine to the lung airways. […] The in vivo mucolytic assay is similar to that described by Chand et al. Agents and Actions, (1993) 38:165-170, incorporated herein by reference.
The procedure, which delivers the test compound to mice as an aerosol, is a modified assay for the evaluation of mucolytic activity in mice as described by Chand et al., previously cited.
1. The test animals are Hsd:1CR(CD-1) mice that weigh approximately 25 g each.
2. The test compound is diluted in normal saline to a concentration of 25 mg/mL and administered using a human De Vilbiss atomizer Model No. 15 at approximately 100 mg/kg. The control group receives saline. The nozzle is placed in the mouth of the mouse and 2 spray doses are given.
3. After 30 minutes, phenol red dissolved as a 5% solution in saline is given IP at a dose of 0.1 mL/10 g body weight.
4. […]
6. The amount of phenol red secreted into the trachea is quantitated photometrically at 546 nm. […]

For experiment [2], the system named is premature fetal rabbits. Briefly: Surfactant activity in RDS model using premature fetal rabbits (dynamic lung compliance). It is filed as in vivo, rabbit. Particulars: fetal rabbits 27 days gestation, 0.2 mL endotracheal instillation, 30 minute intervals for 90 minutes. The procedure: A common in vivo model for the evaluation of surfactants is lung compliance in premature fetal rabbits. This method is described in Revak et al., Am. Rev. Respir. Dir. (1986) 134:1258-1265. In this assay, the effectiveness of the subject compounds as lung surfactants is determined by evaluating dynamic lung compliance in premature fetal rabbits which are known to have difficulty initiating breathing due to low levels of natural lung surfactant.
1. The test animals are fetal rabbits delivered prematurely at 27 days of gestation.
2. The test solution is prepared by suspending the Formula I compound ([…]) in 6 mL of 10 mM HEPES buffer with sodium chloride (150 mM) at a pH of 7.4.
3. 0.2 mL of test solution is administered to the fetal rabbit before breathing commenced by endotracheal instillation and then monitored for breathing. The control group receives saline.
4. The fetal rabbit is ventilated and monitored for breathing.
5. After 30 minutes, the rabbit is examined for quality of breathing and color. A healthy pink color is indicative of good breathing. […] The higher the value of measured compliance, the better the breathing of the test animal.
6. Compliance values are determined at 30 minute intervals for 90 minutes.

For experiment [3], the system named is RAW 264.7 murine monocyte/macrophage cell line (PMA-stimulated respiratory burst). Briefly: In vitro anti-inflammatory activity by inhibition of macrophage activation (luminol chemiluminescence, PMA-stimulated). The conditions noted are these: for inhibition at 1000 µM / inhibition at 3000 µM / inhibition at 10000 µM / inhibition at 30000 µM: Mus musculus, RAW264.7, RAW 264.7, PMA 100 ng, luminol; for inhibition at 1000 µM: 1 mM; for inhibition at 3000 µM: 3 mM; for inhibition at 10000 µM: 10 mM; for inhibition at 30000 µM: 30 mM. It is filed as cell-based, mouse. The procedure: Activation of alveolar macrophages is a critical component of pulmonary inflammation. In their activated state, alveolar macrophages secrete a variety of inflammatory mediators and reactive oxygen species. In the present in vitro model of inflammation, mouse macrophages are activated by phorbol-12-myristate-13-acetate (PMA). The intensity of macrophage activation in the presence or absence of the subject compounds is determined by measuring the respiratory burst (release of reactive oxygen species) of the macrophages.
The RAW 264.7 cell line (American Type Culture Collection, Rockville, Md., USA, Accession No. TIE 71) is a murine monocyte/macrophage line, the cells of which show many of the differentiative functions of a macrophage. Like macrophages, the cells are capable of phagocytosis and undergo an oxidative burst (increased oxygen consumption) and production of oxygen radicals (e.g., superoxide) in response to appropriate signals. Agents that inhibit the activation of these cells in vitro so as to inhibit the respiratory burst and corresponding production of oxygen radicals associated with activation interdict a critical step in the inflammatory process.
The respiratory burst and corresponding production of oxygen radicals that accompany macrophage activation can be measured in a variety of ways, including chemiluminescence based on the reaction of the oxygen radicals with luminol added to the culture medium (see M. A. Trush et al., 1978, "The Generation of Chemiluminescence by Phagocytic Cells.", Methods in Enzymology 57: 462-494). Chemiluminescence generated from luminol in the culture medium of macrophage cell lines is recognized in the art as a marker of macrophage activation. Materials:
Cell line: RAW 264.7 (ATCC TIB-71, attachment dependent);
Culture medium: Dulbecco's Modified Eagle's Medium (DMEM, Sigma Chemical Co. Cat. No. D-7777) with 10% Fetal Bovine Serum (FBS);
Standard protocol for culturing cell lines: in T-75 or T-150 flasks; 37° C.; 95% air, 5% CO2; 100% humidity;
Cell line is passaged when approximately 80% confluent; with trypsin (1 mg/mL) and ethylenediamine tetraacetic acid (EDTA) (1 mM in Ca-Mg free Hank's balanced salt solution); at 1:4 to 1:5 split;
All procedures are performed aseptically in a Class II biological safety cabinet using standard Biosafety Level 2 (BL-2 containment procedures. In order to prevent genetic drift in stock cell lines, fresh cultures are prepared at approximately monthly intervals with cells thawed from liquid nitrogen storage. Methodology:
After cell passage, count cells with a hemocytometer; Adjust cell concentration to approximately 1,000,000 cells per mL;
Suspend cells in DMEM lacking phenol red and without FBS;
Pipette 1 mL of cell suspension into a standard luminometer cuvette (12×75 mm), commercially obtainable from Analytical Luminescence Laboratories, San Diego, Calif., USA;
Add luminol to final concentration of 0.2 mM;
Add test compound dissolved in phosphate buffered saline (PBS), or in dimethyl sulfoxide (DMSO) for final concentration levels ranging from 1 to 30 mM;
Add 100 nanograms of phorbol myristate acetate (PMA); and
Wait 1 minute and read photo counts (i.e., luminescence) on a Monolight 2010 luminometer available from Analytical Luminescence Laboratories, San Diego.

The test system of experiment [4] is Histamine-Induced Airway Resistance. Briefly: Histamine-induced airway resistance in anesthetized guinea pigs (total pulmonary resistance). The conditions noted are these: after induction with histamine, salbutamol 10 μg/kg or same equivalent dosage. It is filed as in vivo, guinea pig. The procedure: The following is a protocol for the evaluation of anti-histamine activity in anesthetized guinea pigs.
1. Guinea pigs of 650-1000 g are used to facilitate catheterization of the jugular vein and carotid artery. The guinea pigs are anesthetized with 35-45 mg/kg pentobarbital sodium. When or if the recordings are unstable, anesthetic additions are made during the course of the intervention. The cutdown is a ventral medial incision over the cervical area so that the trachea, jugular vein and carotid artery can be cannulated. The animals are immediately attached to a volume regulated Harvard® rodent respirator, Model 683, via a tracheostomy and the respirator is set at 60 respirations per minute and a volume of 8 ml/kg to maintain a normal arterial P-CO2 of approximately 40 mmHg. […] These two parameters are measured before and after each drug is given and at each increment in the dose response studies with each drug candidate and recorded. Total pulmonary resistance (TPR) is calculated as the difference between the expiratory pressure and inspiratory pressures with a constant volume.
After the anesthetic and muscle relaxant are given, the animal is allowed to stabilize. […] The dose-related increases or decreases are quantitated against these controls to determine the percent inhibition of histamine activity. […]

Turning to `CC(=O)N[C@@H](CS)C(=O)O` [N-acetylcysteine, reference compound], the “average measured percent change in mucolytic activity” value in experiment [1] is reported as “about 59.5%”.
The term inhibition denotes the drop in the measured response relative to a control, in per cent. `Cc1c(C)c2c(c(C)c1OP(=O)([O-])OCC[N+](C)(C)C)CCC(C)(CCCC(C)CCCC(C)CCCC(C)C)O2` (stereo not drawn) [CPR 2001, α-tocopheryl-phosphocholine]: the “compliance values (dynamic lung compliance)” value in experiment [2] was “significantly greater compliance values”. In addition, in experiment [3] (1 to 30 mM, in contrast to α-tocopherol), the “anti-inflammatory activity with increasing concentration” value is on record as “anti-inflammatory activity markedly increases”. Also, in experiment [3], the inhibition at 1000 µM was 5%, the inhibition at 3000 µM was found to be 13%, the inhibition at 10000 µM worked out at 31% and the inhibition at 30000 µM was found to be 56%. The “average measured percent change in mucolytic activity” value in experiment [1] was “about 82.6%”.
Turning to `Cc1c(C)c2c(c(C)c1O)CCC(C)(CCCC(C)CCCC(C)CCCC(C)C)O2` (stereo not drawn) [α-tocopherol, reference compound], in experiment [3], the inhibition at 1000 µM was -3%, the inhibition at 3000 µM was -6%, the inhibition at 10000 µM was -6% and the inhibition at 30000 µM was -14%.
On to `CC(C)(C)NCC(O)c1ccc(O)c(CO)c1` (stereo not shown) [salbutamol], for which, in experiment [4], the “TPR course after administration” value was “briefly increased and then decreased below the control value”.
